Entries after “also recorded” stand apart in the source; their conditions may differ.
Tests used:
[1] = test system: EAE in NOD mice; test: Rotarod testing in EAE, NOD mice; type: in vivo, mouse; set-up: key to Rotarod Score: n.s. = not significant; *p < 0.05; ***p = 0.0004; ****p < 0.0001; n.i. = not informative
Procedure: Rotarod Testing. Motor behavior was tested up to two times per week for each mouse using a rotarod apparatus (Med Associates Inc., St. Albans, Vt.). Briefly, animals were placed on a rotating horizontal cylinder for a maximum of 200 seconds. The amount of time the mouse remained walking on the cylinder, without falling, was recorded. Each mouse was tested on a speed of 3-30 rpm and given three trials for any given day. The three trials were averaged to report a single value for an individual mouse, and then averages were calculated for all animals within a given treatment group. The first two trial days prior to immunization (day 0), served as practice trials.

[2] = test system: female C57BL/6 mice with EAE; test: In vivo longitudinal MRI of brain volumes in EAE; set-up: species or system mouse
Procedure: MRI Acquisition. Mice were anesthetized with isofluorane and their heads secured with bite and ear bars. Respiration rate was monitored and the mice were maintained at 37° C. using a circulating water pump. In vivo magnetic resonance imaging was performed using a 200 mm horizontal bore 7.0 T Bruker imaging spectrometer with a micro-imaging gradient insert with a maximum gradient strength of 100 G/cm and 30 mm birdcage RF coil (Bruker Instruments, Billerica, Mass.). An actively decoupled quadrature surface coil array was used for signal reception and a 72-mm birdcage coil was used for transmission. Images were acquired and reconstructed using ParaVision 5.1 software. Imaging parameters were as follows: rapid-acquisition with relaxation enhancement (RARE) sequence, matrix dimensions=256×128×64; field of view=3.84 cm×1.92 cm×0.96 cm; repetition time (TR)=3500 ms; apparent time to echo (apparent TE)=32 ms; echo train length=16; total scan time=37 mins. Spatial resolution was 150 μm^3 per voxel.
MRI Analysis. Images were skull-stripped using the Brain Surface Extractor (BSE) and residual non-brain signal was removed by a single operator manually editing the masks using BrainSuite 11a and bias-field inhomogeneities removed using the N3 correction. After inhomogeneity correction, a minimum deformation atlas (MDA) was produced. Images were spatially and intensity normalized to the MDA using a rigid-body transformation and an intensity rescaling cost function in Alignlinear (AIR). This process permits the comparison of images in a standard space correcting for both gross positional and intensity differences, yet preserving anatomically significant local changes. Following creation of this atlas, cerebral cortices and cerebella were manually labeled on the atlas. The labels were then warped onto the individual spatially normalized images to produce standardized estimates of gray matter volumes in individual subjects. All automated image processing was performed using the LONI Pipeline Processing Environment on an 8-processor core Mac Pro computer (Apple, Cupertino, Calif.).
Cerebral cortex and cerebellum labels were based on the Mouse Atlas Project 2003 mouse brain atlas. […] Importantly, this label contained the somatosensory regions (primary and secondary) and the motor cortex (primary and secondary). Additional anatomical information was obtained from the Franklin and Paxinos mouse brain atlas (Franklin and Paxinos, 2008).
Statistics. Global and regional brain volume changes in EAE mice and control animals were compared with repeated measures ANOVAs using SPSS 22 (IBM, Armonk, N.Y.). […] Regression analysis and Welch's t-tests were performed in Excel 2011 (Microsoft, Redmond, Wash.). All results are presented as mean±standard deviation.

[3] = Dissolution of the compound in the oil vehicle; type: physicochemical; conditions: merely pipetting
Procedure: Reagents. AC-186 was dissolved in either Miglyol 812N liquid oil (Sasol North America) or sesame oil (Sigma Aldrich) as following concentration; 1.5 mg/mL for 3 mg/kg group, 5 mg/mL for 10 mg/kg group, and 15 mg/mL for 30 mg/kg group. Diarylpropionitrile (DPN, Tocris Biosciences) was dissolved in 10% molecular-grade ethanol and diluted with 90% of either Miglyol 812N liquid oil or sesame oil.
Three doses of the AC-186 compound were tested in C57BL6 female mice: low (3 mg/kg, every other day), medium (10 mg/kg, every other day), and high (30 mg/kg, every other day), each injected subcutaneously in a sesame oil vehicle. The ERβ ligand diarylpropionitrile (DPN) was tested as a positive control because DPN can partially ameliorate EAE and because the treatment effects in EAE experiments can vary based on the level of disease severity within an experiment. Direct comparisons between treatments were only made between treatment groups within a single EAE experiment and not between treatment groups of different EAE experiments. […] The difference in improvement between the 30 mg/kg AC-186 group and all other groups increased with time.

[4] = 30 mg/kg every other day in miglyol, d0, d30, d60, vs vehicle-treated EAE

Oc1ccc(C2(c3ccccc3F)CCC(F)(F)CC2)cc1 [AC-186]
Rotarod Score ([1]; NOD F, AC186 10 mg/kg, miglylol vehicle): n.i. | Rotarod Score ([1]; NOD F, AC186 30 mg/kg, miglylol vehicle): n.i. | Rotarod Score ([1]; NOD F, AC186 30 mg/kg, sesame vehicle): n.i. | Rotarod Score ([1]; NOD M, AC186 10 mg/kg, miglylol vehicle): n.i. | Rotarod Score ([1]; NOD M, AC186 30 mg/kg, miglylol vehicle): n.i. | Rotarod times ([1]; NOD males, AC-186 in miglyol, vs vehicle): no significant improvement in performance in the rotarod experiment | Cerebellar atrophy (volume loss) [2, 4]: decreased the amount of volume loss; also recorded: less cerebellar atrophy | Cerebral cortex atrophy [2, 4]: atrophy rates were decreased; also recorded: less atrophy in the cerebral cortex | Whole brain atrophy (whole brain volume decrease over time) [2, 4]: significantly smaller; also recorded: less brain atrophy | Volume of the whole cerebellum ([2]; AC-186 30 mg/kg treated EAE mice, d60, mean, SD 1.1 mm^3): 51.8 mm^3 | Volume of the cerebral cortex ([2]; AC-186 30 mg/kg treated EAE mice, d60, mean, SD 1.6 mm^3): 70.8 mm^3 | Volume of the whole brain ([2]; AC-186 30 mg/kg treated EAE mice, d60, mean, SD 7.0 mm^3): 483 mm^3 | Difference in cerebellum volume vs vehicle treated EAE mice ([2]; d60, vehicle 50.0 mm^3): 3.5% | Difference in cerebral cortex volume vs vehicle treated EAE mice ([2]; d60, vehicle 68.9 mm^3): 5.0% | Difference in whole brain volume vs vehicle treated EAE mice ([2]; d60, vehicle 478 mm^3): 2.7% | Time to dissolve in miglyol [3]: 30 s

From patent publication US11628146B2, “Estrogen receptor ligand treatment for neurodegenerative diseases” (The Regents of the University of California, priority 2014, dated 2023)
